# Measurements taken from ChEMBL document CHEMBL4359861, “Design, synthesis and anti-inflammatory evaluation of 3-amide benzoic acid derivatives as novel P2Y14 receptor antagonists” (Eur J Med Chem, 2019).
# Active and inactive are the calls of the source. No cut-off for these calls is given here.
# Key:
# P2Y purinoceptor 14 = target: T1, P2Y purinoceptor 14 (Homo sapiens, UniProt Q15391); assay: Antagonist activity at human P2Y14R stably expressed in human forskolin treated THP1 cells assessed as reduction in P2Y14R agonist UDPG-induced inhibition of cAMP production incubated for 15 mins by competitive enzyme-linked immunoassay; assay type: functional, cell-based
# T1 sequence (Q15391 whole entry): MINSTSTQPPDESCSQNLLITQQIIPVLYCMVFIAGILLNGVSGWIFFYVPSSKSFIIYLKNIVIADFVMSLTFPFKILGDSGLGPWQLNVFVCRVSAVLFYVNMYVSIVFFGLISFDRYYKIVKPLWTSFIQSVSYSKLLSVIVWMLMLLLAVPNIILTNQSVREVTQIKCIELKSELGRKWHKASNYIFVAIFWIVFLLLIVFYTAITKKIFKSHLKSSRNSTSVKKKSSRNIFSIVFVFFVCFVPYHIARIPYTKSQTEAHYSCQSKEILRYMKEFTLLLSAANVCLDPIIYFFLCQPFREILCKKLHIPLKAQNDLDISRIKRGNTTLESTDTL
# [1] = target: T2, P2Y purinoceptor 14 (Homo sapiens) (UniProt Q15391); assay: Inhibition of P2Y14 in human THP1 cells assessed as reversal of MSU-induced reduction in cAMP production at 5 to 20 uM pretreated for 1 hr followed by MSU treatment and measured after 12 hrs by ELISA; assay type: functional, cell-based
# T2 sequence (whole entry): T1 sequence (Q15391 whole entry)
# THP-1 [2] = assay: Inhibition of pyroptosis in human THP1 cells assessed as inhibition of MSU-induced increase in caspase1 level at 5 to 20 uM pretreated for 1 hr followed by MSU treatment and measured after 12 hrs by PI staining based flow cytometric analysis; assay type: functional, cell-based
# THP-1 [3] = assay: Inhibition of inflammasome in human THP1 cells assessed as reversal of MSU-induced increase in NLRP3 protein level at 5 to 20 uM pretreated for 1 hr followed by MSU treatment and measured after 12 hrs by Western blot analysis; assay type: functional, cell-based
# THP-1 [4] = assay: Inhibition of inflammasome in human THP1 cells assessed as reversal of MSU-induced increase in ASC protein level at 5 to 20 uM pretreated for 1 hr followed by MSU treatment and measured after 12 hrs by Western blot analysis; assay type: functional, cell-based
# THP-1 [5] = assay: Inhibition of inflammasome in human THP1 cells assessed as reversal of MSU-induced increase in caspase1 p20 protein level at 5 to 20 uM pretreated for 1 hr followed by MSU treatment and measured after 12 hrs by Western blot analysis; assay type: functional, cell-based
# THP-1 [6] = assay: Inhibition of inflammasome in human THP1 cells assessed as reversal of MSU-induced co-localization of NLRP3 at 5 to 20 uM pretreated for 1 hr followed by MSU treatment and measured after 12 hrs by DAPI staining based confocal laser scanning microscopic method; assay type: functional, cell-based
# [7] = Solubility of compound in pH 7.4 PBS buffer vortex for 1 min followed by 10 mins sonication and further incubated for overnight under shaking condition by UV-vis absorption spectrometric method; assay type: physicochemical
# [8] = Microsomal stability in human liver microsomes assessed as parent compound remaining at 20 uM measured for 10 to 120 mins in presence of NADPH by LC-MS/MS analysis; assay type: ADME, Microsome
# [9] = Microsomal stability in rat liver microsomes assessed as parent compound remaining at 20 uM measured for 10 to 120 mins in presence of NADPH by LC-MS/MS analysis; assay type: ADME, Microsome
# [10] = Ratio of solubility for test compound to solubility for PPTN; assay type: physicochemical
# THP-1 [11] = assay: Inhibition of pyroptosis in human THP1 cells assessed as inhibition of MSU-induced increase in IL-1beta level at 5 to 20 uM by ELISA; assay type: functional, cell-based
# THP-1 [12] = assay: Inhibition of pyroptosis in human THP1 cells assessed as inhibition of MSU-induced increase in caspase1 level at 10 uM pretreated for 1 hr followed by MSU treatment and measured after 12 hrs by PI staining based flow cytometric analysis; assay type: functional, cell-based
# THP-1 [13] = assay: Inhibition of inflammasome in human THP1 cells assessed as reversal of MSU-induced increase in NLRP3 protein level at 10 uM pretreated for 1 hr followed by MSU treatment and measured after 12 hrs by Western blot analysis; assay type: functional, cell-based
# THP-1 [14] = assay: Inhibition of inflammasome in human THP1 cells assessed as reversal of MSU-induced increase in ASC protein level at 10 uM pretreated for 1 hr followed by MSU treatment and measured after 12 hrs by Western blot analysis; assay type: functional, cell-based
# THP-1 [15] = assay: Inhibition of inflammasome in human THP1 cells assessed as reversal of MSU-induced increase in caspase1 p20 protein level at 10 uM pretreated for 1 hr followed by MSU treatment and measured after 12 hrs by Western blot analysis; assay type: functional, cell-based
# THP-1 [16] = assay: Inhibition of inflammasome in human THP1 cells assessed as reversal of MSU-induced co-localization of NLRP3 at 10 uM pretreated for 1 hr followed by MSU treatment and measured after 12 hrs by DAPI staining based confocal laser scanning microscopic method; assay type: functional, cell-based
# THP-1 [17] = assay: Inhibition of pyroptosis in human THP1 cells assessed as inhibition of MSU-induced increase in IL-1beta level at 10 uM by ELISA; assay type: functional, cell-based
compound,measurement,setting,value
N#Cc1ccc(C(=O)Nc2cc(C(=O)O)cc(-c3ccc(C4CCNCC4)cc3)c2)cc1,IC50,P2Y purinoceptor 14,4.54 nM
Cc1ccc(C(=O)Nc2cc(C(=O)O)cc(-c3ccc(C4CCNCC4)cc3)c2)cc1,IC50,P2Y purinoceptor 14,1.77 nM
same,inhibition,[1],Active
same,inhibition,THP-1 [2],Active
same,inhibition,THP-1 [3],Active
same,inhibition,THP-1 [4],Active
same,inhibition,THP-1 [5],Active
same,inhibition,THP-1 [6],Active
same,solubility thermodynamic,[7],572 µg/mL
same,half-life at 20 µM,[8],> 1 h
same,half-life at 20 µM,[9],> 1 h
same,Ratio,[10],> 100
same,inhibition,THP-1 [11],Active
O=C(O)c1cc(-c2ccc(C3CCNCC3)cc2)c2ccc(-c3ccc(C(F)(F)F)cc3)cc2c1 [PPTN],inhibition,THP-1 [12],Active
same,inhibition,THP-1 [13],Active
same,inhibition,THP-1 [14],Active
same,inhibition,THP-1 [15],Active
same,inhibition,THP-1 [16],Active
same,solubility thermodynamic,[7],< 5 µg/mL
same,inhibition,THP-1 [17],Active
O=C(O)c1cc(NC(=O)c2ccc([N+](=O)[O-])cc2)cc(-c2ccc(C3CCNCC3)cc2)c1,IC50,P2Y purinoceptor 14,5.06 nM
O=C(O)c1cc(NC(=O)c2ccncc2)cc(-c2ccc(C3CCNCC3)cc2)c1,IC50,P2Y purinoceptor 14,3.17 nM
O=C(O)c1cc(NC(=O)c2cnccn2)cc(-c2ccc(C3CCNCC3)cc2)c1,IC50,P2Y purinoceptor 14,4.35 nM
O=C(O)c1cc(NC(=O)c2ccccc2)cc(-c2ccc(C3CCNCC3)cc2)c1,IC50,P2Y purinoceptor 14,4.95 nM
